From ChEMBL document CHEMBL6134874, “Identification of Nitric Oxide Donating Dasatinib Derivatives with Intraocular Pressure Lowering and Senolytic Activities” (J Med Chem, 2025)
Active and inactive are the calls of the source. No cut-off for these calls is given here.

Columns and labels:
[1] = Senolytics index ratio of IC50 for antiproliferative activity against mouse MEF cells to IC50 for inhibition of senescence in mouse MEF cells; format: functional
[2] = Inhibition of senescence in mouse MEF cells measured after 72 hrs by CCK-8 method; format: functional, cell-based
[3] = Antiproliferative activity against mouse MEF cells assessed as inhibition of cell proliferation measured after 72 hrs by CCK-8 method; format: functional, cell-based
HTM [4] = test: Upregulation of NO level in HTM cells at 5 uM incubated for 12 hrs by DAF-FM DA fluorescent probe based flow cytometry analysis; format: functional, cell-based; conditions: Homo sapiens
[5] = Toxicity in C57BL/6J mouse assessed as effect on discernible conjunctival hyperemia administered as 10 mM eye drop measured up to 4 hrs; conditions: in vivo, topical_or_ocular, 10000 µM
Mus musculus [6] = test: Neuroprotective activity against magnetic microbead-induced ocular hypertensive COHT C57BL/6J mouse model assessed as increase in retinal ganglion cells (RGC) survival at 10 mM administered eye drop thrice a day for 10 days by immunofluorescence staining based analysis; format: functional, organism-based; conditions: time 10.0 day
Mus musculus [7] = test: Anti-glaucoma activity against magnetic microbead-induced ocular hypertensive COHT C57BL/6J mouse model assessed as reduction in intraocular pressure administered as 10 mM eye drop measured after 2 to 8 hrs; format: functional, organism-based; conditions: time 2-8 hrs
HTM [8] = test: Anti-glaucoma activity in BLEO-induced senescence in HTM cells assessed as decrease in proportion of SA-beta-Gal positive cells at 5 uM measured for 48 hrs by senescence-associated galactosidase staining based microscopic analysis; format: functional, cell-based; conditions: Homo sapiens
Mus musculus [9] = test: Neuroprotective activity against magnetic microbead-induced ocular hypertensive COHT C57BL/6J mouse model assessed as improvement in peak time of N1 wave at 10 mM administered eye drop thrice a day for 10 days […]; format: functional, organism-based; conditions: time 10.0 day
Mus musculus [10] = test: Neuroprotective activity against magnetic microbead-induced ocular hypertensive COHT C57BL/6J mouse model assessed as improvement in N1 wave amplitude at 10 mM administered eye drop thrice a day for 10 days […]; format: functional, organism-based; conditions: time 10.0 day
Mus musculus [11] = test: Neuroprotective activity against magnetic microbead-induced ocular hypertensive COHT C57BL/6J mouse model assessed as improvement in visual acuity of mouse at 10 mM administered eye drop thrice a day for 10 days by Optokinetic Reflex Assay; format: functional, organism-based; conditions: time 10.0 day
Mus musculus [12] = test: (§1) Anti-glaucoma activity against magnetic microbead-induced ocular hypertensive COHT C57BL/6J mouse model assessed as reduction in fraction of SA-beta-Gal positive area in retina at 10 mM administered eye drop thrice a day for 10 days by SA-beta Gal staining based […]; format: functional, organism-based; conditions: time 10.0 day
Mus musculus [13] = test: as §1, with “in number” for “in fraction”, “of SA-betaGal” for “of SA-beta-Gal”, “positive cells per unit” for “positive”, “area of whole flat-mount” for “area in”; format: functional, organism-based; conditions: time 10.0 day
Mus musculus [14] = test: Neuroprotective activity against magnetic microbead-induced ocular hypertensive COHT C57BL/6J mouse model assessed as protection effect on retinal ganglion cells (RGC) at 10 mM administered eye drop thrice a day for 10 days; format: functional, organism-based; conditions: time 10.0 day
Mus musculus [15] = test: Anti-glaucoma activity against magnetic microbead-induced ocular hypertensive COHT C57BL/6J mouse model assessed as reduction in intraocular pressure administered as 10 mM eye drop measured after 2 to 4 hrs; format: functional, organism-based; conditions: time 2-4 hrs
Mus musculus [16] = test: Anti-glaucoma activity against magnetic microbead-induced ocular hypertensive COHT C57BL/6J mouse model assessed as reduction in intraocular pressure administered as 10 mM eye drop measured after 8 hrs; format: functional, organism-based
HTM [17] = test: Upregulation of cGMP level in HTM cells at 5 uM incubated for 24 hrs by ELISA method; format: functional, cell-based; conditions: Homo sapiens
Mus musculus [18] = test: Anti-glaucoma activity against magnetic microbead-induced ocular hypertensive COHT C57BL/6J mouse model assessed as intraocular pressure lowering efficacy administered as 10 mM eye drop measured after 4 hrs; format: functional

| SMILES | Ratio IC50 [1] | IC50 ([2]; Mus musculus, MEF, 72 h) [nM] | IC50 ([3]; Mus musculus, MEF, 72 h) [nM] | also measured |
| --- | --- | --- | --- | --- |
| Cc1nc(Nc2ncc(C(=O)Nc3c(C)cccc3Cl)s2)cc(N2CCN(CCOC(=O)COc3no[n+]([O-])c3C)CC2)n1 | 2.45 | 520 | 1280 |  |
| Cc1nc(Nc2ncc(C(=O)Nc3c(C)cccc3Cl)s2)cc(N2CCN(CCOC(=O)CCC(=O)OCCOc3no[n+]([O-])c3C)CC2)n1 | 2.73 | 490 | 1340 |  |
| Cc1nc(Nc2ncc(C(=O)Nc3c(C)cccc3Cl)s2)cc(N2CCN(CCOC(=O)CCC(=O)OCCCCCO[N+](=O)[O-])CC2)n1 | 0.4 | 3290 | 1310 |  |
| Cc1nc(Nc2ncc(C(=O)Nc3c(C)cccc3Cl)s2)cc(N2CCN(CCO[N+](=O)[O-])CC2)n1 | 1.29 | 1190 | 1530 | Activity (HTM [4]): Active |
| Cc1nc(Nc2ncc(C(=O)Nc3c(C)cccc3Cl)s2)cc(N2CCN(CCOC(=O)CCC(=O)OCCO[N+](=O)[O-])CC2)n1 | 4.3 | 410 | 1750 |  |
| Cc1nc(Nc2ncc(C(=O)Nc3c(C)cccc3Cl)s2)cc(N2CCN(CCOC(=O)CCC(=O)OCCCO[N+](=O)[O-])CC2)n1 | 3.13 | 450 | 1420 |  |
| Cc1nc(Nc2ncc(C(=O)Nc3c(C)cccc3Cl)s2)cc(N2CCN(CCO)CC2)n1 [DASATINIB ANHYDROUS] | 5.55 | 510 | 2850 | Activity [5]: Non-toxic; Activity (Mus musculus [6]): Active; Activity (Mus musculus [7]): inactive; Activity (HTM [8]): Active; Activity (Mus musculus [9]): Active; Activity (Mus musculus [10]): Active; Activity (Mus musculus [11]): inactive; Activity (Mus musculus [12]): Active; Activity (Mus musculus [13]): Active; Activity (Mus musculus [14]): Active |
| Cc1nc(Nc2ncc(C(=O)Nc3c(C)cccc3Cl)s2)cc(N2CCN(CCOC(=O)CCC(=O)OCCOCCOc3no[n+]([O-])c3S(=O)(=O)c3ccccc3)CC2)n1 [listing 1 of 2 here] |  |  |  | Activity (Mus musculus [6]): Active; Compound Showed More Pronounced Effect Then Dasatinib; Activity (Mus musculus [15]): Active; Activity (HTM [4]): Active; Activity (Mus musculus [16]): inactive; Activity (HTM [17]): Active; Activity (HTM [8]): Active; Activity (Mus musculus [9]): Active; Activity (Mus musculus [10]): Active; Activity (Mus musculus [11]): Active; Activity (Mus musculus [12]): Active; Activity (Mus musculus [13]): Active; Activity (Mus musculus [14]): Active; Compound Showed Significant Effect Than Dasatinib |
| CS(=O)(=O)O.CS(=O)(=O)O.CS(=O)(=O)O.Cc1nc(Nc2ncc(C(=O)Nc3c(C)cccc3Cl)s2)cc(N2CCN(CCOC(=O)CCC(=O)OCCOCCOc3no[n+]([O-])c3S(=O)(=O)c3ccccc3)CC2)n1 | 3.25 |  |  | Activity [5]: Non-toxic; IC50 ([2]; mef): 380 nM; IC50 ([3]; mef): 1230 nM; Activity (Mus musculus [18]): 3.6 mmHg |
| Cc1nc(Nc2ncc(C(=O)Nc3c(C)cccc3Cl)s2)cc(N2CCN(CCOC(=O)CCC(=O)OCCCCOc3no[n+]([O-])c3S(=O)(=O)c3ccccc3)CC2)n1 | 1.9 | 1240 | 2350 |  |
| CS(=O)(=O)O.CS(=O)(=O)O.CS(=O)(=O)O.Cc1nc(Nc2ncc(C(=O)Nc3c(C)cccc3Cl)s2)cc(N2CCN(CCOC(=O)CCC(=O)OCCCCOc3no[n+]([O-])c3S(=O)(=O)c3ccccc3)CC2)n1 | 1.76 |  |  | IC50 ([2]; mef): 750 nM; IC50 ([3]; mef): 1310 nM |
| Cc1nc(Nc2ncc(C(=O)Nc3c(C)cccc3Cl)s2)cc(N2CCN(CCOC(=O)CCC(=O)O[C@@H]3CO[C@H]4[C@@H]3OC[C@@H]4O[N+](=O)[O-])CC2)n1 | 0.61 | 540 | 330 |  |
| Cc1nc(Nc2ncc(C(=O)Nc3c(C)cccc3Cl)s2)cc(N2CCN(CCOC(=O)CCC(=O)OCCCCO[N+](=O)[O-])CC2)n1 | 1.67 | 1070 | 1780 |  |
| Cc1nc(Nc2ncc(C(=O)Nc3c(C)cccc3Cl)s2)cc(N2CCN(CCOC(=O)CCC(=O)OCCOCCOc3no[n+]([O-])c3S(=O)(=O)c3ccccc3)CC2)n1 [listing 2 of 2 here] | 2.28 | 480 | 1100 |  |
